IC50 data for 31 compounds are collected here from patent publication US10202360B2 (CELGENE QUANTICEL RESEARCH, INC., priority 2016, dated 2019).

The assay has as its target CREBBP (Homo sapiens (Human), UniProt Q92793). Description: In vitro enzyme inhibition assay - CREBBP inhibition (AlphaScreen, biotinylated H4-tetraacetyl peptide). Conditions: Table 28; AlphaScreen, H4-tetraacetyl peptide. The assay is classed as binding. The gist of the method: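 Displacement of 20 nM biotinylated tetraacetyl-H4 peptide from 50 nM E. coli-expressed His-CREBBP, measured by AlphaScreen after bead equilibration for 2 h.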
(In general: Bead proximity is the source of the signal in Alpha formats.)

A value given as a limit tells only on which side of the number the result lay.

Chain of CREBBP (Q92793 1081-1197): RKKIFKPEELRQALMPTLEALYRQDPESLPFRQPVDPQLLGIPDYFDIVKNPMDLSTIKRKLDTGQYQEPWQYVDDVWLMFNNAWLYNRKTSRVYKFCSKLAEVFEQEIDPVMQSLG

Consider `CCS(=O)(=O)Nc1cc(-c2ccc(=O)n(C)c2)nc(OC2CCCCC2)n1` [Example 246, Ethanesulfonic acid [2-cylcohexyloxy-6-(1-methyl-6-oxo-1,6-dihydro-pyridin-3-yl)-pyrimidin-4-yl]-amide], for which the half-maximal inhibitory concentration (IC50) (as a rule, the point on the concentration scale where inhibition reaches its midpoint) was below 500 nM.

Compound `CC(C)S(=O)(=O)Nc1cc(-c2ccc(=O)n(C)c2)nc(OC2CCCCC2)n1` [Example 247, Propane-2-sulfonic acid [2-cylcohexyloxy-6-(1-methyl-6-oxo-1,6-dihydro-pyridin-3-yl)-pyrimidin-4-yl]-amide] came in with a 50% inhibitory concentration (IC50) below 500 nM. Turning to `Cc1cccc(F)c1Oc1nc(NS(=O)(=O)CCC(C)C)cc(-c2ccc(=O)n(C)c2)n1` [Example 248, 3-Methyl-butane-1-sulfonic acid [2-(2-fluoro-6-methyl-phenoxy)-6-(1-methyl-6-oxo-1,6-dihydro-pyridin-3-yl)-pyrimidin-4-yl]-amide], the half-maximal inhibitory concentration (IC50) is below 500 nM. For `CCCCS(=O)(=O)Nc1cc(-c2cc(C)c(=O)n(C)c2)nc(OC2CCCCC2)n1` [Example 249, Butane-1-sulfonic acid [2-cyclohexyloxy-6-(1,5-dimethyl-6-oxo-1,6-dihydro-pyridin-3-yl)-pyrimidin-4-yl]-amide], the IC50 was below 500 nM. The figure for `Cc1cc(-c2cc(NS(=O)(=O)C(C)C)nc(OC3CCCCC3)n2)cn(C)c1=O` [Example 250, Propane-2-sulfonic acid [2-cyclohexyloxy-6-(1,5-dimethyl-6-oxo-1,6-dihydro-pyridin-3-yl)-pyrimidin-4-yl]-amide] is below 500 nM.

`CC(C)CCS(=O)(=O)Nc1cc(-c2ccc(=O)n(C)c2)nc(Oc2c(F)cccc2Cl)n1` [Example 251, 3-Mehtyl-butane-1-sulfonic acid [2-(2-chloro-6-fluoro-phenoxy)-6-(1-methyl-6-oxo-1,6-dihydro-pyridin-3-yl)-pyrimidin-4-yl]-amide] showed an IC50 below 500 nM. The compound `Cc1cccc(Cl)c1Oc1nc(NS(=O)(=O)CCC(C)C)cc(-c2ccc(=O)n(C)c2)n1` [Example 252, 3-Methyl-butane-1-sulfonic acid [2-(2-chloro-6-methyl-phenoxy)-6-(1-methyl-6-oxo-1,6-dihydro-pyridin-3-yl)-pyrimidin-4-yl]-amide] came in with an IC50 below 500 nM. In the case of `CCC(CC)S(=O)(=O)Nc1cc(-c2ccc(=O)n(C)c2)nc(Oc2c(C)cccc2F)n1` [Example 253, Pentane-3-sulfonic acid [2-(2-fluoro-6-methyl-pphenoxy)-6-(1-methyl-6-oxo-1,6-dihydro-pyridin-3-yl)-pyrimidin-4-yl]-amide], the IC50 is below 500 nM. The figure for `CCC(CC)S(=O)(=O)Nc1cc(-c2ccc(=O)n(C)c2)nc(Oc2c(F)cccc2Cl)n1` [Example 254, Pentane-3-sulfonic acid [2-(2-chloro-6-fluoro-phenoxy)-6-(1-methyl-6-oxo-1,6-dihydro-pyridin-3-yl)-pyrimidin-4-yl]-amide] is below 500 nM; for `CCCCS(=O)(=O)Nc1cc(-c2ccc(=O)n(C)c2)nc(Oc2c(F)ccc(C)c2Cl)n1` [Example 255, Butane-1-sulfonic acid [2-(2-chloro-6-fluoro-3-methyl-phenoxy)-6-(1-methyl-6-oxo-1,6-dihydro-pyridin-3-yl)-pyrimidin-4-yl]-amide] it is below 500 nM; for `Cc1ccc(F)c(Oc2nc(NS(=O)(=O)C(C)C)cc(-c3ccc(=O)n(C)c3)n2)c1Cl` [Example 256, Propane-2-sulfonic acid [2-(2-chloro-6-fluoro-3-methyl-phenoxy)-6-(1-methyl-6-oxo-1,6-dihydro-pyridin-3-yl)-pyrimidin-4-yl]-amide] it is below 500 nM. With `CCCCS(=O)(=O)Nc1cc(-c2ccc(=O)n(C)c2)nc(Oc2c(F)ccc(C)c2F)n1` [Example 257, Butane-1-sulfonic acid [2-(2,6-difluoro-3-methyl-phenoxy)-6-(1-methyl-6-oxo-1,6-dihydro-pyridin-3-yl)-pyrimidin-4-yl]-amide] the figure was below 500 nM.

In the case of `CCCCS(=O)(=O)Nc1cc(-c2ccc(=O)n(C)c2)nc(Oc2c(Cl)ccc(C)c2F)n1` [Example 258, Butane-1-sulfonic acid [2-(6-chloro-2-fluoro-3-methyl-phenoxy)-6-(1-methyl-6-oxo-1,6-dihydro-pyridin-3-yl)-pyrimidin-4-yl]-amide], the IC50 was below 500 nM. The figure for `CCC(CC)S(=O)(=O)Nc1cc(-c2ccc(=O)n(C)c2)nc(Oc2c(C)cccc2Cl)n1` [Example 259, Pentane-3-sulfonic acid [2-(2-chloro-6-methyl-phenoxy)-6-(1-methyl-6-oxo-1,6-dihydro-pyridin-3-yl)-pyrimidin-4-yl]-amide] is below 500 nM; for `Cc1ccc(F)c(Oc2nc(NS(=O)(=O)C(C)C)cc(-c3ccc(=O)n(C)c3)n2)c1F` [Example 260, Propane-2-sulfonic acid [2-(2,6-difluoro-3-methyl-phenoxy)-6-(1-methyl-6-oxo-1,6-dihydro-pyridin-3-yl)-pyrimidin-4-yl]-amide] it is below 500 nM.

`Cc1ccc(Cl)c(Oc2nc(NS(=O)(=O)C(C)C)cc(-c3ccc(=O)n(C)c3)n2)c1F` [Example 261, Propane-2-sulfonic acid [2-(6-chloro-2-fluoro-3-methyl-phenoxy)-6-(1-methyl-6-oxo-1,6-dihydro-pyridin-3-yl)-pyrimidin-4-yl]-amide] yielded an IC50 below 500 nM.

Consider `Cc1ccc(Cl)c(Oc2nc(NS(=O)(=O)CCC(C)C)cc(-c3ccc(=O)n(C)c3)n2)c1F` [Example 262, 3-Methyl-butane-1-sulfonic acid [2-(6-chloro-2-fluoro-3-methyl-phenoxy)-6-(1-methyl-6-oxo-1,6-dihydro-pyridin-3-yl)-pyrimidin-4-yl]-amide], for which the IC50 was below 500 nM. `Cn1cc(-c2cc(NS(=O)(=O)CC3CC3)nc(Oc3c(F)cccc3Cl)n2)ccc1=O` [Example 263, N-[2-(2-Chloro-6-fluoro-phenoxy)-6-(1-methyl-6-oxo-1,6-dihydro-pyridin-3-yl)-pyrimidin-4-yl]-C-cyclopropyl-methanesulfonamide] showed a half-inhibitory concentration (IC50) below 500 nM.

On to `Cc1cccc(Cl)c1Oc1nc(NS(=O)(=O)CC2CC2)cc(-c2ccc(=O)n(C)c2)n1` [Example 264, N-[2-(2-Chloro-6-methyl-phenoxy)-6-(1-methyl-6-moxo-1,6-dihydro-pyridin-3-yl)-pyrimidin-4-yl]-C-cyclopropyl-methanesulfonamide], for which the IC50 is below 500 nM.

The compound `Cc1ccc(F)c(Oc2nc(NS(=O)(=O)CCC(C)C)cc(-c3ccc(=O)n(C)c3)n2)c1Cl` [Example 265, 3-Methyl-butane-1-sulfonic acid [2-(2-chloro-6-fluoro-3-methyl-phenoxy)-6-(1-methyl-6-oxo-1,6-dihydro-pyridin-3-yl)-pyrimidin-4-yl]-amide] yielded an IC50 below 500 nM. With `Cc1cccc(Cl)c1Oc1nc(NS(=O)(=O)CCC2CC2)cc(-c2ccc(=O)n(C)c2)n1` [Example 266, 2-Cyclopropyl-ethanesulfonic acid [2-(2-chloro-6-methyl-phenoxy)-6-(1-methyl-6-oxo-1,6-dihydro-pyridin-3-yl)-pyrimidin-4-yl]-amide] the figure was below 500 nM; with `Cn1cc(-c2cc(NS(=O)(=O)CCC3CC3)nc(Oc3c(F)cccc3Cl)n2)ccc1=O` [Example 268, 2-Cyclopropyl-ethanesulfonic acid [2-(2-chloro-6-fluoro-phenoxy)-6-(1-methyl-6-oxo-1,6-dihydro-pyridin-3-yl)-pyrimidin-4-yl]-amide], below 500 nM; with `Cc1cc(-c2cc(N)nc(Oc3ccc(F)cc3F)n2)cn(C)c1=O` [Example 270, 5-(6-amino-2-(2,4-difluorophenoxy)pyrimidin-4-yl)-1,3-dimethy-lpyridin-2(1H)-one], below 500 nM. In turn, `Cc1cc(-c2cc(NCCc3ccccc3)nc(Oc3ccc(F)cc3F)n2)cn(C)c1=O` [Example 271, 5-(2-(2,4-difluorophenoxy)-6-(phenethylamino)pyrimidin-4-yl)-1,3-dimethylpyridin-2(1H)-one] came in with an IC50 below 500 nM. With `Cc1cc(-c2cc(NCc3ccccc3)nc(Oc3ccc(F)cc3F)n2)cn(C)c1=O` [Example 272, 5-(6-(benzylamino)-2-(2,4-difluorophenoxy)pyrimidin-4-yl)-1,3-dimethylpyridin-2(1H)-one] the figure was below 500 nM; with `Cn1cc(-c2cc(NCc3ccccc3)nc(Oc3ccc(F)cc3F)n2)ccc1=O` [Example 274, 5-(6-(benzylamino)-2-(2,4-difluorophenoxy)pyrimidin-4-yl)-1-methylpyridin-2(1H)-one], below 500 nM. The figure for `CN(Cc1ccccc1)c1cc(-c2ccc(=O)n(C)c2)nc(Oc2ccc(F)cc2F)n1` [Example 275, 5-(6-(benzyl(methyl)amino)-2-(2,4-difluorophenoxy)pyrimidin-4-yl)-1-methylpyridin-2(1H)-one] is below 500 nM. `Cn1cc(-c2cc(Nc3ccccc3)nc(Oc3ccc(F)cc3F)n2)ccc1=O` [Example 276, 5-(2-(2,4-difluorophenoxy)-6-(phenylamino)pyrimidin-4-yl)-1-methylpyridin-2(1H)-one] had a half-maximal inhibitory concentration (IC50) below 500 nM.

In turn, `CCN(CC)c1cc(-c2ccc(=O)n(C)c2)nc(Oc2ccc(F)cc2F)n1` [Example 277, 5-(6-(diethylamino)-2-(2,4-difluorophenoxy)pyrimidin-4-yl)-1-methylpyridin-2(1H)-one] displayed a concentration for half-maximal inhibition (IC50) below 500 nM. Compound `CCOc1ccc(C(C)Nc2cc(-c3ccc(=O)n(C)c3)nc(Oc3c(C)cccc3F)n2)cc1` (stereo not shown) [Example 278, 5-(6-((1-(4-ethoxyphenyl)ethyl)amino)-2-(2-fluoro-6-methylphenoxy)pyrimidin-4-yl)-1-methylpyridin-2(1H)-one] returned a 50% inhibitory concentration (IC50) below 500 nM.

Compound `CCc1ccc(C(C)Nc2cc(-c3ccc(=O)n(C)c3)nc(Oc3c(C)cccc3F)n2)cc1` (stereo not shown) [Example 279, 5-(6-((1-(4-ethylphenyl)ethyl)amino)-2-(2-fluoro-6-methylphenoxy)pyrimidin-4-yl)-1-methylpyridin-2(1H)-one] displayed an IC50 below 500 nM.
